Assay results taken from US20180099931A1 (AbbVie S.à.r.l., priority 2016, published 2018).
Read-outs that look alike come from different tables or passages of the source.

Target: T1, F508delCFTR (Homo sapiens, UniProt P13569, DEL508-508)
T1 construct: expressed in transfected cells; host or cells: CFBE41o- human lung-derived epithelial cells (CFBE4lo-F508delCFTR-HRP), doxycycline-inducible
Experiment: Cell Surface Expression-Horse Radish Peroxidase (CSE-HRP) Assay;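 as to Maximum % activity (with co-corrector): co-corrector and positive control are both the same reference corrector at 2 µM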;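 as to Maximum % activity (without co-corrector): percent of the 2 µM on-plate positive control corrector response above DMSO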
Type: cell-based
Details: for Emax / Maximum % activity (with co-corrector): maximum at any tested concentration, normalized to on-plate positive control; for Emax: read-out: Maximum % activity (without co-corrector); for Maximum % activity (with co-corrector): with co-corrector (2 μM)

[1] = test compound without co-corrector
[2] = test compound without co-corrector, read-out: EC50 (without co-corrector)
[3] = with co-corrector (2 μM of 3-[(2R,4R)-4-({[1-(2,2-difluoro-1,3-benzodioxol-5-yl)cyclopropyl]carbonyl}amino)-7-methoxy-3,4-dihydro-2H-chromen-2-yl]benzoic acid), read-out: EC50 (with co-corrector)

T1 sequence (P13569 with tags, fused parts or gaps DEL508-508): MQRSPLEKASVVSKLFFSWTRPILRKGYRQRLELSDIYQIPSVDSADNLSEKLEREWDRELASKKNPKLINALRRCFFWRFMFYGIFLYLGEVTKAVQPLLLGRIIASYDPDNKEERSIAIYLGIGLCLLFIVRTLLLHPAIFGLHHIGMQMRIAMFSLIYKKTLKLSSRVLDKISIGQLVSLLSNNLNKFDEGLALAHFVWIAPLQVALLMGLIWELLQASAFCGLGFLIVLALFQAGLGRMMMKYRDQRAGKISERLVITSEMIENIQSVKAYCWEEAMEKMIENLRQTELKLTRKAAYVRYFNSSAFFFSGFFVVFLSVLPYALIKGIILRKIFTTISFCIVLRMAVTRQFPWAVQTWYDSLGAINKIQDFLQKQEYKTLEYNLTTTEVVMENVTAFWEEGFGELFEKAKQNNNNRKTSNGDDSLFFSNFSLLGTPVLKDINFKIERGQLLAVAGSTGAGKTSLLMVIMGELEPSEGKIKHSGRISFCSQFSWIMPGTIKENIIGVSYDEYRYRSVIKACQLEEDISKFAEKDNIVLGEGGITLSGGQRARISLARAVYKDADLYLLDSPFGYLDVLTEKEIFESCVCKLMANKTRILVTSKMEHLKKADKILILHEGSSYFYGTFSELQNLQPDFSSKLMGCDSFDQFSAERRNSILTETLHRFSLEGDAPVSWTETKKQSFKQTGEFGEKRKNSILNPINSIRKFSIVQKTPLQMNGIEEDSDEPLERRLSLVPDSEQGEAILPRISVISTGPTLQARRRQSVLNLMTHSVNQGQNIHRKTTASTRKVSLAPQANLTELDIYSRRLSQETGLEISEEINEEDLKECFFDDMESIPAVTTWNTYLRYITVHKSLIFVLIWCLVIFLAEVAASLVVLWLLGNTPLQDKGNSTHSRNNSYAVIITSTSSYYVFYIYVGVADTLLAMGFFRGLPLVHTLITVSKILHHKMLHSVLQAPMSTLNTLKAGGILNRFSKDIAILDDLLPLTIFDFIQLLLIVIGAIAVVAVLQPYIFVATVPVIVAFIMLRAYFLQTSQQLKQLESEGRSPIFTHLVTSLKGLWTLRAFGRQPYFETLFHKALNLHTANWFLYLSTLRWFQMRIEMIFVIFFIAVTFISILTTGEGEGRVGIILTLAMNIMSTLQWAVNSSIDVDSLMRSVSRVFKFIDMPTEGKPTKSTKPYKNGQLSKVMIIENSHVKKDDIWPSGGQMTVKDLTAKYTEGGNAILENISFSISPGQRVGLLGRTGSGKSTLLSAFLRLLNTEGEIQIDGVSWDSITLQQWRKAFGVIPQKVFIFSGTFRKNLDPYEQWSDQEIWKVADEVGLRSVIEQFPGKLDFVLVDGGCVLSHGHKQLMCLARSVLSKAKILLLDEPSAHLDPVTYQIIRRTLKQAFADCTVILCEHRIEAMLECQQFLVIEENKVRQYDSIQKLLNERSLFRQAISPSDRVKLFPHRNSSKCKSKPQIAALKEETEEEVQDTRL

| Structure (SMILES) | Emax [1] | EC50 [2] | EC50 [3] | Maximum % activity (with co-corrector) |
| --- | --- | --- | --- | --- |
| COc1ccc(C(C)(C)C)cc1CN[C@H]1[C@H](C(C)(C)C)[C@@H](C(=O)O)N(C(=O)C2CCc3cc(F)ccc3O2)[C@H]1c1cccnc1N(C)C (stereo partly drawn) [III-210] | < 100% | 1 to 10 µM | 1 to 10 µM | ++ (≥150 and <350) |
| COc1ncc(C(F)(F)F)cc1N[C@H]1[C@H](C(C)(C)C)[C@@H](C(=O)O)N(C(=O)[C@H]2CCCC[C@@H]2C(F)(F)F)[C@H]1c1cccnc1N(C)C [III-212] | < 100% | > 10 µM | 1 to 10 µM | ++ (≥150 and <350) |
| COc1ncc(C(F)(F)F)cc1N[C@H]1[C@H](C(C)(C)C)[C@@H](C(=O)O)N(C(=O)[C@H]2CCCCO2)[C@H]1c1cccnc1N(C)C [III-213] | < 100% | > 10 µM | > 10 µM | + (<150) |
| COc1ncc(C2CCC2)cc1CN[C@H]1[C@H](C(C)(C)C)[C@@H](C(=O)O)N(C(=O)C2CCCCC2C(F)(F)F)[C@H]1c1ccccc1 (stereo partly drawn) [III-214] | 100 to 200% | < 1 µM | < 1 µM | +++ (≥350) |
| COc1ccc(C(C)(C)C)cc1CN[C@H]1[C@H](C(C)(C)C)[C@@](C)(C(=O)O)N(C(=O)[C@H](OC)c2ccccc2)[C@H]1c1ccccc1 [III-215] | < 100% | 1 to 10 µM | 1 to 10 µM | ++ (≥150 and <350) |
| Cc1cc(C(F)(F)F)cc(N[C@H]2[C@H](C(C)(C)C)[C@@H](C(=O)O)N(C(=O)[C@H]3CCCCO3)[C@H]2c2cccnc2N(C)C)n1 [III-216] | < 100% | 1 to 10 µM | 1 to 10 µM | ++ (≥150 and <350) |
| COc1ccc(C(C)(C)C)cc1CN[C@H]1[C@H](C(C)(C)C)[C@@H](C(=O)O)N(C(=O)N(C(C)C)C(C)C)[C@H]1c1ccccc1 [III-217] | < 100% | > 10 µM | 1 to 10 µM | + (<150) |
| COc1ccc(C23CC(C2)C3)cc1CN[C@H]1[C@H](C(C)(C)C)[C@@H](C(=O)O)N(C(=O)OC(C)C)[C@H]1c1cccnc1OC(F)F [III-218] | 100 to 200% | 1 to 10 µM | 1 to 10 µM | +++ (≥350) |
| COc1nc(C(C)(C)C)ccc1CN[C@H]1[C@H](C(C)(C)C)[C@@H](C(=O)O)N(C(=O)OC(C)C)[C@H]1c1cccnc1N(C)C [III-219] | 100 to 200% | 1 to 10 µM | < 1 µM | +++ (≥350) |
| COc1ccc(C23CC(C2)C3)cc1CN[C@H]1[C@H](C(C)(C)C)[C@@H](C(=O)O)N(C(=O)OC(C)C)[C@H]1c1ccccc1C(C)C [III-220] | > 200% | < 1 µM | < 1 µM | +++ (≥350) |
| COc1ncc(C(F)(F)F)cc1CN[C@H]1[C@H](C23CC(C2)C3)[C@@H](C(=O)O)N(C(=O)OC(C)C)[C@H]1c1ccccc1 [III-221] | 100 to 200% | 1 to 10 µM | 1 to 10 µM | +++ (≥350) |
| COc1ccc(C(C)(C)C)cc1CN[C@H]1[C@H](C23CC(C2)C3)[C@@H](C(=O)O)N(C(=O)OC(C)C)[C@H]1c1ccccc1F [III-222] | 100 to 200% | 1 to 10 µM | 1 to 10 µM | +++ (≥350) |
| COc1ncc(C2CCC2)cc1CN[C@H]1[C@H](C(C)(C)C)[C@@H](C(=O)O)N(C(=O)OC(C)C)[C@H]1c1cccnc1N(C)C [III-224] | > 200% | 1 to 10 µM | 1 to 10 µM | +++ (≥350) |
| COc1ccc(SC(F)(F)F)cc1CN[C@H]1[C@H](C(C)(C)C)[C@@H](C(=O)O)N(C(=O)OC(C)C)[C@H]1c1cccnc1N(C)C [III-225] | > 200% | 1 to 10 µM | 1 to 10 µM | +++ (≥350) |
| COc1cc2c(cc1CN[C@H]1[C@H](C(C)(C)C)[C@@H](C(=O)O)N(C(=O)OC(C)C)[C@H]1c1ccccc1)CCC2 [III-226] | > 200% | 1 to 10 µM | 1 to 10 µM | +++ (≥350) |
| COc1cc2c(cc1CN[C@H]1[C@H](C(C)(C)C)[C@@H](C(=O)O)N(C(=O)OC(C)C)[C@H]1c1ccccc1)C(C)(C)CCC2(C)C [III-227] | 100 to 200% | 1 to 10 µM | < 1 µM | +++ (≥350) |
| COc1ccc(C(C)(C)C)cc1CN[C@H]1[C@H](C(C)(C)C)[C@@H](C(=O)O)N(C(=O)OC(C)C)[C@H]1c1cccnc1OC(C)C [III-229] | > 200% | 1 to 10 µM | < 1 µM | +++ (≥350) |
| COc1ccc(C(C)(C)C)cc1CN[C@H]1[C@H](C(C)(C)C)[C@@H](C(=O)O)N(C(=O)[C@]2(C)COc3cc4c(cc32)OC(F)(F)O4)[C@H]1c1cccnc1OC [III-230] | < 100% | 1 to 10 µM | 1 to 10 µM | ++ (≥150 and <350) |
| COc1ccc(OC(F)(F)F)cc1CN[C@H]1[C@H](C(C)(C)C)[C@@H](C(=O)O)N(C(=O)OC(C)C)[C@H]1c1cccnc1OC(C)C [III-231] | > 200% | 1 to 10 µM | 1 to 10 µM | +++ (≥350) |
| CCC(C)(C)c1ccc(OC)c(CN[C@H]2[C@H](C(C)(C)C)[C@@H](C(=O)O)N(C(=O)OC(C)C)[C@H]2c2cccnc2N(C)C)c1 [III-232] | > 200% | 1 to 10 µM | 1 to 10 µM | +++ (≥350) |
| COc1ccc(C2(C)CCC2)cc1CN[C@H]1[C@H](C(C)(C)C)[C@@H](C(=O)O)N(C(=O)[C@@H]2CCCCO2)[C@H]1c1cccnc1OC [III-233] | > 200% | 1 to 10 µM | 1 to 10 µM | +++ (≥350) |
| COc1ccc(C2(C)CCC2)cc1CN[C@H]1[C@H](C(C)(C)C)[C@@H](C(=O)O)N(C(=O)[C@H]2CCCCO2)[C@H]1c1cccnc1OC [III-234] | 100 to 200% | 1 to 10 µM | 1 to 10 µM | +++ (≥350) |
| CC(C)OC(=O)N1[C@H](C(=O)O)[C@@H](C(C)(C)C)[C@H](NCC2CCN(C(C)C)CC2)[C@@H]1c1ccccc1 [III-235] | < 100% | > 10 µM | < 1 µM | + (<150) |
| COc1ncc(C2CCC2)cc1CN[C@@H]1[C@@H](C(C)(C)C)[C@H](C(=O)O)N(C(=O)[C@@H]2CCCO2)[C@@H]1c1ccccc1Cl [III-236] | < 100% | 1 to 10 µM | 1 to 10 µM | ++ (≥150 and <350) |
